According to paper PMC5333395, “Assessing histone demethylase inhibitors in cells: lessons learned” (Epigenetics & Chromatin, 2017):

Legend:
KDM5A = KDM5A (Homo sapiens, UniProt P29375); assay: AlphaScreen in vitro demethylase assay; type: biochemical; details: IC50 ± SD (number of replicates)
Description: IC50 values were determined as previously described. The following amendments were made to the protocol for carrying out 2-OG competition assays.

KDM4B = target: T1, KDM4B (Homo sapiens, UniProt O94953); assay: High-content immunofluorescence (IF) assay, overexpressed full-length FLAG-tagged KDM in HeLa cells; type: cell-based; details: HeLa cells overexpressing WT KDM4B, H3K9me3 mark, 24 h; read-out: KDM4B, in cells, EC50 by IF assay (head: IC50)
T1 sequence (O94953 1-1096): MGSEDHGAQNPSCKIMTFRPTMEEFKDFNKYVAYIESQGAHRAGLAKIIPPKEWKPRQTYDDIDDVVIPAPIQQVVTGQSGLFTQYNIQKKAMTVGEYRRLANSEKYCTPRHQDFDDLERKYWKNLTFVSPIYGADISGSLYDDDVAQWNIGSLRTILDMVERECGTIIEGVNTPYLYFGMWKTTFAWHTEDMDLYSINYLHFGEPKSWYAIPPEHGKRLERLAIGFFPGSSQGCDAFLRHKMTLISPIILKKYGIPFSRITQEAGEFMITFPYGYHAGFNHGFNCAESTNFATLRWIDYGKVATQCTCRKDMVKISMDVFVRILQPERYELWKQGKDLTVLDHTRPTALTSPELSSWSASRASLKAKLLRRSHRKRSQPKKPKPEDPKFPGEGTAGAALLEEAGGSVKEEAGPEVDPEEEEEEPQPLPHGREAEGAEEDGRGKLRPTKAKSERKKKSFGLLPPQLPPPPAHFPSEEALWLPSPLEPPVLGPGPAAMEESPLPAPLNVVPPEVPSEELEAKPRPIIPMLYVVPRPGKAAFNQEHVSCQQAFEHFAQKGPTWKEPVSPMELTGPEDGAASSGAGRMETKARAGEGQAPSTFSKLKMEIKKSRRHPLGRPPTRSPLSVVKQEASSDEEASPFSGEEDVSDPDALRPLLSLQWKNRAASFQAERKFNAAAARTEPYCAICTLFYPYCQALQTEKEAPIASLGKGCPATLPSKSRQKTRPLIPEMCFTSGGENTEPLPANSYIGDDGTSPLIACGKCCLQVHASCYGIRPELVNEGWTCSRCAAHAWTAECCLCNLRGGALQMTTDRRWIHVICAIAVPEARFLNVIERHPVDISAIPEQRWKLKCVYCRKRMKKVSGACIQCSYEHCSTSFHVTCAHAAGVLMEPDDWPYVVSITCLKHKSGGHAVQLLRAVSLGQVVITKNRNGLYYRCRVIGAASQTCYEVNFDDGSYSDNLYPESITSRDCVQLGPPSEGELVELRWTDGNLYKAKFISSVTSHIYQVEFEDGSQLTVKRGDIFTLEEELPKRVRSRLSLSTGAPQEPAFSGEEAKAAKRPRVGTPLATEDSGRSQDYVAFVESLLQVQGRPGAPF
Description: (§1) HeLa cells (ATCC) were cultured at 37 °C and 5% CO2 in Minimal Essential Media—Eagle (Sigma-Aldrich, UK) supplemented with 10% heat-inactivated foetal calf serum (FCS) (Gibco, UK), and 1% L-glutaMAX (Gibco, UK) in T75 flasks (Sarstedt, UK) and passaged regularly with TrypLE (Life Technologies, UK) before cells reached confluence. On day 0, 7000 cells per well were plated on a 96-well clear bottom CellCarrier plate (PerkinElmer, UK). The next day the cells were transfected with Lipofectamine 3000 (ThermoFisher Scientific, UK) following the manufacturer’s instructions. Briefly, 0.1 µg of plasmid DNA (encoding for the respective demethylase) and 0.15 µL of Lipofectamine 3000 were diluted in separate tubes containing 5 µL OptiMEM. 0.15 µL of P3000 was added to the tube with the DNA. The two solutions were then mixed gently and allowed to incubate for 5 min at room temperature. Next, the DNA-lipid complex was added to the cells for 4 h at 37 °C and 5% CO2.
(§2) Compound dilutions were made in a 96-well PCR plate (Starlab, UK). The culture medium was supplemented with 0.4% DMSO so that the solvent concentration was maintained throughout. Compounds were serially diluted at a 1:2 or 1:3 dilution ratio. Next, the cell culture plate was removed from the incubator and the medium was gently aspirated and replaced with the fresh medium containing diluted compounds.
(§3) Then cells were rinsed once with PBS and blocked for 30 min at room temperature using 3% v/v foetal calf serum diluted in PBS.

KDM4C = target: T2, KDM4C (Homo sapiens, UniProt Q9H3R0); assay: as above; type: cell-based; details: HeLa cells overexpressing WT KDM4C, H3K9me3 mark, 24 h; read-out: KDM4C, in cells, EC50 by IF assay (head: IC50)
T2 sequence (Q9H3R0 1-1056): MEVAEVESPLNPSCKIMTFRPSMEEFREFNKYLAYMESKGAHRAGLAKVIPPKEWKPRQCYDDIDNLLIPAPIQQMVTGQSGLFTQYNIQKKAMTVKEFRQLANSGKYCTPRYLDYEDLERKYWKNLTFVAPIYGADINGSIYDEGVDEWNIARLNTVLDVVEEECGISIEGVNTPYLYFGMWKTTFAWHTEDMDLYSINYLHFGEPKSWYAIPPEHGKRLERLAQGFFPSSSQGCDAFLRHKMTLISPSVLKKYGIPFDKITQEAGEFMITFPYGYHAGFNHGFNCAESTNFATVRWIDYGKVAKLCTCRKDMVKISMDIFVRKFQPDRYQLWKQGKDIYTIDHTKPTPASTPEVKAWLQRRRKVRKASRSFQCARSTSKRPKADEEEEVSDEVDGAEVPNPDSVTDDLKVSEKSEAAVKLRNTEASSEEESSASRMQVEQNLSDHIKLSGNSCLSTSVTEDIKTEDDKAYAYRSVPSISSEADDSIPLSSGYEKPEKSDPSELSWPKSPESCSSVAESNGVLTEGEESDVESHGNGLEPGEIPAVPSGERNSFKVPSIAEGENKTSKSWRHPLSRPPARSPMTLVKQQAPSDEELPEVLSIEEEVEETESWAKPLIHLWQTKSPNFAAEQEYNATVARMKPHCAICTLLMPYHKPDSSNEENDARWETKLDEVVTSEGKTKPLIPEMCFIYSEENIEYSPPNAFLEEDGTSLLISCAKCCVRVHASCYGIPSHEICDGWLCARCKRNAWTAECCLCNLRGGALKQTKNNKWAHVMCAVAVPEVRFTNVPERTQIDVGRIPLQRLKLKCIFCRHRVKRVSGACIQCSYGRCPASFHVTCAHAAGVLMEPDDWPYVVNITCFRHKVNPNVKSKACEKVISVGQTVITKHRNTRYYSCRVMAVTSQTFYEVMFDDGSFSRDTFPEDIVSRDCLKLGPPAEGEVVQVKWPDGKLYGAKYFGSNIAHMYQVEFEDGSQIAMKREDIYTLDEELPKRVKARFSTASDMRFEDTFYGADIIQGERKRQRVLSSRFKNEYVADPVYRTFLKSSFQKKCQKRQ
Description: as §1, §2, §3

Chain of KDM5A (P29375 whole entry): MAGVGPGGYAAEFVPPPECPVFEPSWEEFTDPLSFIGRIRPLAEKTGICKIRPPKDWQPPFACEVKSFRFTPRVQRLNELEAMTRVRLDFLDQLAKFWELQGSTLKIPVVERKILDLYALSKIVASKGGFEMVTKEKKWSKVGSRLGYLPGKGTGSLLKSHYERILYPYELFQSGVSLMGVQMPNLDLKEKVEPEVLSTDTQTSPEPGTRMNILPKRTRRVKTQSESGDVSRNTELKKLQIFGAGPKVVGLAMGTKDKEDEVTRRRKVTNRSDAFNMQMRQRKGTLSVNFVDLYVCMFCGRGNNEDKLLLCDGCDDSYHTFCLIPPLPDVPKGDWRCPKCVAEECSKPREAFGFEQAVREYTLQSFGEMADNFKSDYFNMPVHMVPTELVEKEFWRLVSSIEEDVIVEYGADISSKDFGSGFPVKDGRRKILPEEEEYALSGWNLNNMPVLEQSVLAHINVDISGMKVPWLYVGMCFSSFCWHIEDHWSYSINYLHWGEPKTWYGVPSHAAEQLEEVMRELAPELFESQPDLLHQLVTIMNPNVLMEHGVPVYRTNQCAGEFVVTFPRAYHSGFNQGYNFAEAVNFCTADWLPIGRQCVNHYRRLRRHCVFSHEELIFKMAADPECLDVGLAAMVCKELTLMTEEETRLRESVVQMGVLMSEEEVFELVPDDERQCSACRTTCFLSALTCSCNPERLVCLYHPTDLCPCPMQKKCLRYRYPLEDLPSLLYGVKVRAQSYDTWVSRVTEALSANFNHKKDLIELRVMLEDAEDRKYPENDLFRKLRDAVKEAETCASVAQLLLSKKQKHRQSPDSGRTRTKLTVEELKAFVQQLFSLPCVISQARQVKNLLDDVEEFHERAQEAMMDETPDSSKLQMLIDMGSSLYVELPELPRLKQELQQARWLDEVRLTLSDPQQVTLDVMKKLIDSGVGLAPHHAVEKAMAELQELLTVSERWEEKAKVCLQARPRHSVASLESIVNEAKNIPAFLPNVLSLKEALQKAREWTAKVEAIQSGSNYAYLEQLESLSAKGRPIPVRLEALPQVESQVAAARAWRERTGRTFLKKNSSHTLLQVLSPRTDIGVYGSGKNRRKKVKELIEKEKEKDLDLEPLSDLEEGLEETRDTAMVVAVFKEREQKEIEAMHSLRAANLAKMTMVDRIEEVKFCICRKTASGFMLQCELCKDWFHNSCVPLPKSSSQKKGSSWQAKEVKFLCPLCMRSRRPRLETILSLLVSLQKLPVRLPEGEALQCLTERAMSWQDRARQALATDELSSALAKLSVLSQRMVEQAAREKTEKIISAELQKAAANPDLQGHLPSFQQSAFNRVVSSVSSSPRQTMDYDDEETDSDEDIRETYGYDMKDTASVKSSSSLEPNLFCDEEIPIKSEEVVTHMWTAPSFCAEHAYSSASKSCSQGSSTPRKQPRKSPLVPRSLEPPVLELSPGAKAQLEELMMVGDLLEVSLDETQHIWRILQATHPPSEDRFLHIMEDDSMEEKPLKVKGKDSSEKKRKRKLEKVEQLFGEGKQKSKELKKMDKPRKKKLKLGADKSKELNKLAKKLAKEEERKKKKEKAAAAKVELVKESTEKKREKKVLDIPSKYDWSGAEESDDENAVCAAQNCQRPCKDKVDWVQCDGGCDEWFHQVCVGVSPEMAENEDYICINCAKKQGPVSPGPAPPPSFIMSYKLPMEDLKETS

| SMILES | IC50 (KDM5A) [µM] | EC50 (KDM4B) [µM] | EC50 (KDM4C) [µM] |
| --- | --- | --- | --- |
| CCN(CCN(C)C)C(=O)CNCc1cc(C(=O)O)ccn1 [KDOAM-20] | 0.01 ± 0.003 |  |  |
| CCN(CCN(C)C)C(=O)CNCc1cncc(C(N)=O)c1 [KDOAM-32] |  | > 100 | > 100 |
| CCOC(=O)c1ccnc(CNCC(=O)N(CC)CCN(C)C)c1 [KDOAM-21] | 0.068 ± 0.01 | 10 | 17.9 |
